Experiments:
[1] = molecular target: PI3Kα (complex of human p110α and human p85α) (Homo sapiens (Human), UniProt P42336); experiment: PI3Kα kinase assay (HTRF-based PI3K inhibition assay); assay type: biochemical; details: for inhibition at 0.93 µM: 0.93 μM compound, read-out: PI3K alpha average % Inhibition at 0.93 μM; for IC50: 10 μM ATP, 10 μM PIP2, 20 min at 22° C., read-out: average IC50 in the PI3K alpha biochemical assay;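 as to all read-outs here: PIP3 product detected by HTRF, reading resonance energy transfer from Europium-labeled anti-GST antibody to Streptavidin-APC, as displacement of biotinylated PIP3 tracer from the GST-PH domain complex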
Excerpt: (§1) Determination of % Inhibition and IC50 Values of Compounds in PI3Kα Kinase Assay
PI3Kα inhibitory activity of compounds of the present invention was quantified employing the HTRF-based PI3K inhibition assay as described below.
(§2) As reagents for the kinase reaction itself and the quantification of the reaction product, the PI3-Kinase HTRF Assay kit from Millipore (#33-017) was used. With this kit the phosphatidylinositol 3,4,5-trisphosphate (PIP3) generated in the kinase reaction is detected by displacement of a biotinylated ligand from an energy transfer complex consisting of a Europium-labeled anti-GST monoclonal antibody, a GST-tagged PH domain, biotinylated PIP3 and Streptavidin-Allophycocyanin (APC).
For the assay 50 nL of a 80-fold concentrated solution of the test compound in DMSO was pipetted into a black low volume 384-well microtiter plate (Greiner Bio-One, Frickenhausen, Germany), 3 μL of a solution of PI3Kα and phosphatidylinositol-4,5-bisphosphate (PIP2, 13.8 μM=> final conc. in 4 μl reaction volume=10 μM) in 1× reaction buffer (exact composition not disclosed by the vendor) were added and the mixture was incubated for 15 min at 22° C. to allow pre-binding of the test compounds to the enzyme before the start of the kinase reaction. The amount of PI3Kα was chosen to have the enzyme reaction in the linear range and depended on the activity of the individual lot, typical concentrations in assay were in the range of 90 ng/mL. Then the kinase reaction was started by the addition of 1 μL of a solution of adenosine triphosphate (ATP, 40 μM=> final conc. in the 4 μL assay volume is 10 μM) in reaction buffer and the resulting mixture was incubated for a reaction time of 20 min at 22° C.
The reaction was stopped by the addition of 1 μL of an stop solution (containing the biotinylated PIP3 used as a tracer), then 1 μL detection mix (containing a Europium-labeled anti-GST monoclonal antibody, a GST-tagged PH domain, and Streptavidin-Allophycocyanin) was added and resulting mixture was incubated 3 h at 22° C. to allow the formation of complexes between the detection reagents and either the PIP3 generated in the kinase reaction, or the biotinylated PIP3 added with the stop solution. Subsequently, the amount of energy transfer complex consisting of a Europium-labeled anti-GST monoclonal antibody, a GST-tagged PH domain, biotinylated PIP3 and Streptavidin-Allophycocyanin (APC) was evaluated by measurement of the resonance energy transfer from the Europium-labeled anti-GST monoclonal antibody to the Streptavidin-Allophycocyanin. Therefore, the fluorescence emissions at 620 nm and 665 nm after excitation at 350 nm were measured using a TR-FRET reader, e.g., a Pherastar (BMG Labtechnologies, Offenburg, Germany) or a Viewlux (Perkin-Elmer). The ratio of the emissions at 665 nm and at 622 nm was taken as the measure for the amount of biotinylated PIP3 bound to the GST-tagged PH domain, which is negatively correlated with the amount of PIP3 generated.

[2] = molecular target: PI3Kβ (complex of human p110β and human p85α) (Homo sapiens (Human), UniProt P42338); experiment: PI3Kβ kinase assay (HTRF-based PI3K inhibition assay); assay type: biochemical; details: for inhibition at 0.93 µM: 0.93 μM compound, read-out: PI3K beta average % Inhibition at 0.93 μM; for IC50: 10 μM ATP, 10 μM PIP2, 20 min at 22° C., read-out: average IC50 in the PI3K beta biochemical assay; for PI3K beta average IC50/PI3K alpha average IC50: ratio of beta IC50 to alpha IC50;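 as to all read-outs here: Kinase-made PIP3 detected by HTRF, displacing biotinylated PIP3 tracer from a complex of Europium anti-GST antibody, GST-fused PH domain and Streptavidin-APC, read as Europium-to-APC energy transfer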
Sequence of PI3Kβ (complex of human p110β and human p85α) (P42338 whole entry, the tested form may be a part): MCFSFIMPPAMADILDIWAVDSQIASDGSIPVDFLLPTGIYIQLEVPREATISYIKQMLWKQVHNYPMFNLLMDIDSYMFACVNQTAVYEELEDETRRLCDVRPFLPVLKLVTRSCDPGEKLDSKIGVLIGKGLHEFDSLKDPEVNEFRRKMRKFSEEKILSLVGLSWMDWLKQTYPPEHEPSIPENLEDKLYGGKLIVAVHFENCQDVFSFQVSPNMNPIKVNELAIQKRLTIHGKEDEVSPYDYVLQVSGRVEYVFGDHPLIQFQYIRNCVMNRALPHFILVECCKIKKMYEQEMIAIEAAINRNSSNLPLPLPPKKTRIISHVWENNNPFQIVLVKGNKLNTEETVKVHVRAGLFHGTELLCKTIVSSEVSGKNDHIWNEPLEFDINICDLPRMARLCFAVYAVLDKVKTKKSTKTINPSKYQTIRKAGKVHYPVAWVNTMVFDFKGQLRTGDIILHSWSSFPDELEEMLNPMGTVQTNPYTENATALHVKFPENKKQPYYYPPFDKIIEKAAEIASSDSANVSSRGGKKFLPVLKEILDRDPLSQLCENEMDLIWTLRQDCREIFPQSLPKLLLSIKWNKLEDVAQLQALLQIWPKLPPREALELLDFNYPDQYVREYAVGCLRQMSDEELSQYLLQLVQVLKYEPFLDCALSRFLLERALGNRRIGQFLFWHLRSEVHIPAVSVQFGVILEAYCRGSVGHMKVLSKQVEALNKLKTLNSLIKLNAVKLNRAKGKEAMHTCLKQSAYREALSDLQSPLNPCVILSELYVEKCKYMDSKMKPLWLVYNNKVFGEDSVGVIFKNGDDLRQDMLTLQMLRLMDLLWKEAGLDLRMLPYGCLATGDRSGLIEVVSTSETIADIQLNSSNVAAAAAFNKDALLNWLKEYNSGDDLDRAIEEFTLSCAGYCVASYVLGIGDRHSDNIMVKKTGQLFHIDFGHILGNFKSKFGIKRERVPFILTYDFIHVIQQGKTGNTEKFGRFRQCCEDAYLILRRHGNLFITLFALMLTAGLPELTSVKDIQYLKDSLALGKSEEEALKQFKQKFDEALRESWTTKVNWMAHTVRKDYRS
Sequence of PI3Kβ (complex of human p110β and human p85α) (P27986 whole entry partner, the tested form may be a part): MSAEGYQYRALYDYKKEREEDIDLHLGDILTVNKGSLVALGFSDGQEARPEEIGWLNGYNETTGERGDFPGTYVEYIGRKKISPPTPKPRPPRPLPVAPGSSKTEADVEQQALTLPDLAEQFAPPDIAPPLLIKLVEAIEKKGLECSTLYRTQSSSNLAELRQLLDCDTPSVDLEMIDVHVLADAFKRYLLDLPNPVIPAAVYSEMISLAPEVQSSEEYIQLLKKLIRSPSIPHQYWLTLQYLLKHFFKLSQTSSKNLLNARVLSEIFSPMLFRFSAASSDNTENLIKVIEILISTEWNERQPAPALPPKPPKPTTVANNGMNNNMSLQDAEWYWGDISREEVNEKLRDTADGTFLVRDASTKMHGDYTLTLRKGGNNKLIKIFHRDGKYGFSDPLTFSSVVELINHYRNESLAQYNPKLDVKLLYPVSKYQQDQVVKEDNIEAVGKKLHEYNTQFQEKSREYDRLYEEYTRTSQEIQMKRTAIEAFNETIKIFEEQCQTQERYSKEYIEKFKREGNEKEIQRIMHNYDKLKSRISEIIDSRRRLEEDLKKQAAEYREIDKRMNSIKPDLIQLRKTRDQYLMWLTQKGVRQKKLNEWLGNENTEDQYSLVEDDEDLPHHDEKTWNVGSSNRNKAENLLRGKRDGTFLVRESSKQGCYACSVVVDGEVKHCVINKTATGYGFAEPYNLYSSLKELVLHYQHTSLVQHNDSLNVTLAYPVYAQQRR
Excerpt: as §1
PI3Kα inhibitory activity of compounds of the present invention was quantified employing the HTRF based PI3K inhibition assay as described below.
as §2
For the assay 50 nL of a 80-fold concentrated solution of the test compound in DMSO was pipetted into a black low volume 384-well microtiter plate (Greiner Bio-One, Frickenhausen, Germany), 3 μl of a solution of PI3Kβ and phosphatidylinositol-4,5-bisphosphate (PIP2, 13.8 μM=> final conc. in 4 μl reaction volume=10 μM) in 1× reaction buffer (exact composition not disclosed by the vendor) were added and the mixture was incubated for 15 min at 22° C. to allow pre-binding of the test compounds to the enzyme before the start of the kinase reaction. The amount of PI3Kβ was chosen to have the enzyme reaction in the linear range and depended on the activity of the individual lot, typical concentrations in assay were in the range of 120 ng/mL. Then the kinase reaction was started by the addition of 1 μL of a solution of adenosine triphosphate (ATP, 40 μM=> final conc. in the 4 μl assay volume is 10 μM) in reaction buffer and the resulting mixture was incubated for a reaction time of 20 min at 22° C.
The reaction was stopped by the addition of 1 μL of an stop solution (containing the biotinylated PIP3 used as a tracer). Then 1 μL detection mix (containing a Europium-labeled anti-GST monoclonal antibody, a GST-tagged PH domain, and Streptavidin-Allophycocyanin) was added and resulting mixture was incubated for 3 h at 22° C. to allow the formation of complexes between the detection reagents and either the PIP3 generated in the kinase reaction, or the biotinylated PIP3 added with the stop solution. Subsequently the amount of energy transfer complex consisting of a Europium-labeled anti-GST monoclonal antibody, a GST-tagged PH domain, biotinylated PIP3 and Streptavidin-Allophycocyanin (APC) was evaluated by measurement of the resonance energy transfer from the Europium-labeled anti-GST monoclonal antibody to the Streptavidin-Allophycocyanin. Therefore, the fluorescence emissions at 620 nm and 665 nm after excitation at 350 nm were measured using a TR-FRET reader, e.g., a Pherastar (BMG Labtechnologies, Offenburg, Germany) or a Viewlux (Perkin-Elmer). The ratio of the emissions at 665 nm and at 622 nm were taken as the measure for the amount of biotinylated PIP3 bound to the GST-tagged PH domain, which is negatively correlated with the amount of PIP3 generated.

Sequence of PI3Kα (complex of human p110α and human p85α) (P42336 whole entry, the tested form may be a part): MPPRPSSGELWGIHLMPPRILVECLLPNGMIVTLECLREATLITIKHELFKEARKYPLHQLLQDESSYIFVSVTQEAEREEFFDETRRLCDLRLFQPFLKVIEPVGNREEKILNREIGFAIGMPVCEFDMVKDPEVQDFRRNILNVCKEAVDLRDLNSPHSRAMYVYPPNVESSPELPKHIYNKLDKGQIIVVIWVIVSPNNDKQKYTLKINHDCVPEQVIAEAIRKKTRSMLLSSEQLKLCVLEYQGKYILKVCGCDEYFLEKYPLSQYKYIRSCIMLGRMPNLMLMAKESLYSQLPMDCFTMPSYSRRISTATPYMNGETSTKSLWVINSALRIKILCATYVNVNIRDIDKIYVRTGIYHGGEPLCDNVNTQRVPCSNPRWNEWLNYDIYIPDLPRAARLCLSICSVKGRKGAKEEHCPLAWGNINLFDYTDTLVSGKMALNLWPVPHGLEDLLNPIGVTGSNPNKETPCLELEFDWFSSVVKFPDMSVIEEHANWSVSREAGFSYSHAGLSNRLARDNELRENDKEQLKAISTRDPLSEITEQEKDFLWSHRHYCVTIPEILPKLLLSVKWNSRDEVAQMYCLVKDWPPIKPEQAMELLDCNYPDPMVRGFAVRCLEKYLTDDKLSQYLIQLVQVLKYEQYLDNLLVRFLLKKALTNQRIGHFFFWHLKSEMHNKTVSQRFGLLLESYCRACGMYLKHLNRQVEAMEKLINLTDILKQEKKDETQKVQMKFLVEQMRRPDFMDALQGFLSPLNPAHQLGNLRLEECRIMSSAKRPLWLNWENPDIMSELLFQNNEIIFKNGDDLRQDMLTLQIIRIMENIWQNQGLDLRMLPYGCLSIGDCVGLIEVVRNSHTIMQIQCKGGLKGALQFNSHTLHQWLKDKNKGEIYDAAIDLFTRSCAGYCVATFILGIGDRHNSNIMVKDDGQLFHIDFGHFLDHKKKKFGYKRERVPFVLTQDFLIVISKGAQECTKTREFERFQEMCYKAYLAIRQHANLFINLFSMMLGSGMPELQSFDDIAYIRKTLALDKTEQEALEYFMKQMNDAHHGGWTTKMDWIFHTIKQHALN
Sequence of PI3Kα (complex of human p110α and human p85α) (P27986 whole entry partner, the tested form may be a part): as the sequence (P27986 whole entry partner, the tested form may be a part) above

SMILES	inhibition at 0.93 µM [1] [%]	IC50 [1] [µM]	inhibition at 0.93 µM [2] [%]	IC50 [2] [µM]	PI3K beta average IC50/PI3K alpha average IC50 [2]
COc1c(OC[C@H](O)CN2CCOCC2)ccc2c1N=C(NC(=O)c1cnc3[nH]cnc3c1)N1CCN=C21 [Example 30, N-(8-{[(2R)-2-Hydroxy-3-(morpholin-4-yl)propyl]oxy}-7-methoxy-2,3-dihydroimidazo[1,2-c]quinazolin-5-yl)-3H-imidazo[4,5-b]pyridine-6-carboxamide]	110	< 0.01	108	0.01 to 0.05	8.83
COc1c(OCC(O)CN(C)C)ccc2c1N=C(NC(=O)c1cccnc1)N1CCN=C21 (centres unmarked) [Example 10, N-{8-[3-(dimethylamino)-2-hydroxypropoxy]-7-methoxy-2,3-dihydroimidazo[1,2-c]quinazolin-5-yl}pyridine-3-carboxamide]	96.3	< 0.01	98.1	0.01 to 0.05	5.47
COc1c(OC[C@H](O)CN2CCOCC2)ccc2c1N=C(NC(=O)c1cncs1)N1CCN=C21 [Example 32, N-(8-{[(2R)-2-Hydroxy-3-(morpholin-4-yl)propyl]oxy}-7-methoxy-2,3-dihydroimidazo[1,2-c]quinazolin-5-yl)-1,3-thiazole-5-carboxamide]	96.1	< 0.01	95.5	0.01 to 0.05	5.91
COc1c(OC[C@H](O)CN2CCCC2)ccc2c1N=C(NC(=O)c1cnco1)N1CCN=C21 [Example 40, N-(8-{[(2R)-2-Hydroxy-3-(pyrrolidin-1-yl)propyl]oxy}-7-methoxy-2,3-dihydroimidazo[1,2-c]quinazolin-5-yl)-1,3-oxazole-5-carboxamide]	88	> 0.05	72.7	> 0.05	
COc1c(OC[C@H](O)CN2CCCC2)ccc2c1N=C(NC(=O)c1cccnc1C)N1CCN=C21 [Example 18, N-(8-{[(2R)-2-hydroxy-3-(pyrrolidin-1-yl)propyl]oxy}-7-methoxy-2,3-dihydroimidazo[1,2-c]quinazolin-5-yl)-2-methylpyridine-3-carboxamide]	96.9	< 0.01	103	0.01 to 0.05	3.90
COc1c(OC[C@H](O)CN2CCCCC2)ccc2c1N=C(NC(=O)c1cccnc1)N1CCN=C21 [Example 9, N-(8-{[(2R)-2-Hydroxy-3-(piperidin-1-yl)propyl]oxy}-7-methoxy-2,3-dihydroimidazo[1,2-c]quinazolin-5-yl)pyridine-3-carboxamide]	104	< 0.01	97.2	0.01 to 0.05	2.02
COc1c(OC[C@H](O)CN2CCCC2)ccc2c1N=C(NC(=O)c1cncs1)N1CCN=C21 [Example 36, N-(8-{[(2R)-2-Hydroxy-3-(pyrrolidin-1-yl)propyl]oxy}-7-methoxy-2,3-dihydroimidazo[1,2-c]quinazolin-5-yl)-1,3-thiazole-5-carboxamide]	92.4	< 0.01	93.9	0.01 to 0.05	3.41
COc1c(OC[C@H](O)CN2CCOCC2)ccc2c1N=C(NC(=O)c1ccc(N)nc1C)N1CCN=C21 [Example 23, 6-Amino-N-(8-{[(2R)-2-hydroxy-3-(morpholin-4-yl)propyl]oxy}-7-methoxy-2,3-dihydroimidazo[1,2-c]quinazolin-5-yl)-2-methylpyridine-3-carboxamide]	105	< 0.01	119	0.01 to 0.05	7.30
COc1c(OCC(O)CN2CCOCC2)ccc2c1N=C(NC(=O)c1cnc(N)nc1)N1CCN=C21 (centres unmarked) [Example 25, 2-Amino-N-{8-[2-hydroxy-3-(morpholin-4-yl)propoxy]-7-methoxy-2,3-dihydroimidazo[1,2-c]quinazolin-5-yl}pyrimidine-5-carboxamide]	92.7	< 0.01	93.3	< 0.01	8.30
COc1c(OC[C@H](O)CN2CCCC2)ccc2c1N=C(NC(=O)c1scnc1C)N1CCN=C21 [Example 38, N-(8-{[(2R)-2-Hydroxy-3-(pyrrolidin-1-yl)propyl]oxy}-7-methoxy-2,3-dihydroimidazo[1,2-c]quinazolin-5-yl)-4-methyl-1,3-thiazole-5-carboxamide]	92.8	< 0.01	95.1	< 0.01	5.64
COc1c(OC[C@H](O)CN2CCCC2)ccc2c1N=C(NC(=O)c1cccnc1)N1CCN=C21 [Example 8, N-(8-{[(2R)-2-hydroxy-3-(pyrrolidin-1-yl)propyl]oxy}-7-methoxy-2,3-dihydroimidazo[1,2-c]quinazolin-5-yl)pyridine-3-carboxamide]	102	< 0.01	101	0.01 to 0.05	2.62
COc1c(OC[C@H](O)CN2CCC2)ccc2c1N=C(NC(=O)c1cncs1)N1CCN=C21 [Example 35, N-(8-{[(2R)-3-(Azetidin-1-yl)-2-hydroxypropyl]oxy}-7-methoxy-2,3-dihydroimidazo[1,2-c]quinazolin-5-yl)-1,3-thiazole-5-carboxamide]	109	< 0.01	102	0.01 to 0.05	6.30
COc1c(OCC(O)CN2CCSCC2)ccc2c1N=C(NC(=O)c1cccnc1)N1CCN=C21 (centres unmarked) [Example 6, N-{8-[2-hydroxy-3-(thiomorpholin-4-yl)propoxy]-7-methoxy-2,3-dihydroimidazo[1,2-c]quinazolin-5-yl}pyridine-3-carboxamide]	91.2	< 0.01	84.1	> 0.05	
COc1c(OCC(O)CN2CCOCC2)ccc2c1N=C(NC(=O)c1ccc(N)nc1)N1CCN=C21 (centres unmarked) [Example 21, 6-amino-N-{8-[2-hydroxy-3-(morpholin-4-yl)propoxy]-7-methoxy-2,3-dihydroimidazo[1,2-c]quinazolin-5-yl}pyridine-3-carboxamide]		< 0.01		0.01 to 0.05	9.37
COc1c(OC[C@H](O)CN2CCC2)ccc2c1N=C(NC(=O)c1cccnc1)N1CCN=C21 [Example 7, N-(8-{[(2R)-3-(azetidin-1-yl)-2-hydroxypropyl]oxy}-7-methoxy-2,3-dihydroimidazo[1,2-c]quinazolin-5-yl)pyridine-3-carboxamide]	99.5	0.01 to 0.05	97.3	> 0.05	2.22
